This is an account of results in ChEMBL document CHEMBL3045060, “Synthesis of some urea and thiourea derivatives of naphtha[1,2-d]thiazol-2-amine as anti-Parkinsonian agents that cause neuroprotection against haloperidol-induced oxidative stress in mice” (2009).

One assay concerns Mus musculus. Nature of the assay: Neuroprotective activity in haloperidol-induced catalepsy Mus musculus Swiss albino (mouse) model assessed as mean descent time at 100 mg/kg, po administered 30 min before haloperidol challenge measured at 150 min post challenge. The format is functional.
Conditions: not given
With `S=C(Nc1ccc(Cl)cc1)Nc1nc2c(ccc3ccccc32)s1`, the Time was found to be 232 s.

Regarding `Fc1ccc(NC(=S)Nc2nc3c(ccc4ccccc43)s2)cc1`, the Time was found to be 232 s.

As for `O=[N+]([O-])c1ccc(NC(=S)Nc2nc3c(ccc4ccccc43)s2)cc1`, the Time is 207 s.

Consider `O=C(Nc1ccc(Cl)cc1)Nc1nc2c(ccc3ccccc32)s1`, for which the Time came out at 199 s.

In the case of `O=C(Nc1nc2c(ccc3ccccc32)s1)Nc1cc(C(F)(F)F)ccc1Cl`, the Time came out at 150 s.

Regarding `Cc1ccccc1NC(=O)Nc1nc2c(ccc3ccccc32)s1`, the Time is 170 s.

Consider `O=C(Nc1ccccc1)Nc1nc2c(ccc3ccccc32)s1`, for which the Time turned out to be 172 s.

For `O=C(Nc1nc2c(ccc3ccccc32)s1)Nc1ccccc1Br`, the Time came out at 219 s.

Turning to `O=C(Nc1ccc(F)cc1)Nc1nc2c(ccc3ccccc32)s1`, the Time came out at 226 s.

For `O=C(Nc1nc2c(ccc3ccccc32)s1)Nc1ccccc1F`, the Time was 245 s.

Turning to `S=C(Nc1ccccc1)Nc1nc2c(ccc3ccccc32)s1`, the Time stood at 174 s.

With `O=C(Nc1ccc(Oc2ccccc2)cc1)Nc1nc2c(ccc3ccccc32)s1`, the Time came to 135 s.

Take `Cc1ccccc1NC(=S)Nc1nc2c(ccc3ccccc32)s1`: the Time worked out at 160 s.

For a further assay, the system named is Mus musculus. Nature of the assay: Neuroprotective activity in haloperidol-induced catalepsy Mus musculus Swiss albino (mouse) model assessed as mean descent time at 100 mg/kg, po administered 30 min before haloperidol challenge measured at 120 min post challenge.
Conditions: not given
The format is functional.
As for `S=C(Nc1ccc(Cl)cc1)Nc1nc2c(ccc3ccccc32)s1`, the Time amounted to 216 s.

Consider `Fc1ccc(NC(=S)Nc2nc3c(ccc4ccccc43)s2)cc1`, for which the Time was 246 s.

In the case of `O=[N+]([O-])c1ccc(NC(=S)Nc2nc3c(ccc4ccccc43)s2)cc1`, the Time worked out at 201 s.

For `O=C(Nc1ccc(Cl)cc1)Nc1nc2c(ccc3ccccc32)s1`, the Time came to 202 s.

Turning to `O=C(Nc1nc2c(ccc3ccccc32)s1)Nc1cc(C(F)(F)F)ccc1Cl`, the Time was 156 s.

Turning to `Cc1ccccc1NC(=O)Nc1nc2c(ccc3ccccc32)s1`, the Time turned out to be 166 s.

With `O=C(Nc1ccccc1)Nc1nc2c(ccc3ccccc32)s1`, the Time worked out at 174 s.

On to `O=C(Nc1nc2c(ccc3ccccc32)s1)Nc1ccccc1Br`, for which the Time was 197 s.

Consider `O=C(Nc1ccc(F)cc1)Nc1nc2c(ccc3ccccc32)s1`, for which the Time was 207 s.

As to `O=C(Nc1nc2c(ccc3ccccc32)s1)Nc1ccccc1F`, the Time was found to be 236 s.

In the case of `S=C(Nc1ccccc1)Nc1nc2c(ccc3ccccc32)s1`, the Time worked out at 178 s.

As for `O=C(Nc1ccc(Oc2ccccc2)cc1)Nc1nc2c(ccc3ccccc32)s1`, the Time amounted to 132 s.

`Cc1ccccc1NC(=S)Nc1nc2c(ccc3ccccc32)s1`: the Time is 157 s.

The next assay has as its system Mus musculus. Nature of the assay: Neuroprotective activity in haloperidol-induced catalepsy Mus musculus Swiss albino (mouse) model assessed as mean descent time at 100 mg/kg, po administered 30 min before haloperidol challenge measured at 60 min post challenge.
Conditions: not given
The format is functional.
Regarding `S=C(Nc1ccc(Cl)cc1)Nc1nc2c(ccc3ccccc32)s1`, the Time turned out to be 169 s.

With `Fc1ccc(NC(=S)Nc2nc3c(ccc4ccccc43)s2)cc1`, the Time was found to be 98 s.

Consider `O=[N+]([O-])c1ccc(NC(=S)Nc2nc3c(ccc4ccccc43)s2)cc1`, for which the Time stood at 178 s.

In the case of `O=C(Nc1ccc(Cl)cc1)Nc1nc2c(ccc3ccccc32)s1`, the Time was 127 s.

As for `O=C(Nc1nc2c(ccc3ccccc32)s1)Nc1cc(C(F)(F)F)ccc1Cl`, the Time is 114 s.

Consider `Cc1ccccc1NC(=O)Nc1nc2c(ccc3ccccc32)s1`, for which the Time was determined as 116 s.

In the case of `O=C(Nc1ccccc1)Nc1nc2c(ccc3ccccc32)s1`, the Time was 132 s.

Regarding `O=C(Nc1nc2c(ccc3ccccc32)s1)Nc1ccccc1Br`, the Time came out at 131 s.

Take `O=C(Nc1ccc(F)cc1)Nc1nc2c(ccc3ccccc32)s1`: the Time is 159 s.

For the compound `O=C(Nc1nc2c(ccc3ccccc32)s1)Nc1ccccc1F`, the Time worked out at 118 s.

Take `S=C(Nc1ccccc1)Nc1nc2c(ccc3ccccc32)s1`: the Time is 129 s.

In the case of `O=C(Nc1ccc(Oc2ccccc2)cc1)Nc1nc2c(ccc3ccccc32)s1`, the Time stood at 110 s.

Regarding `Cc1ccccc1NC(=S)Nc1nc2c(ccc3ccccc32)s1`, the Time amounted to 110 s.

In another assay the test system is Mus musculus. Nature of the assay: Neuroprotective activity in haloperidol-induced catalepsy Mus musculus Swiss albino (mouse) model assessed as mean descent time at 100 mg/kg, po administered 30 min before haloperidol challenge measured at 180 min post challenge. The format is functional.
Conditions: not given
Take `S=C(Nc1ccc(Cl)cc1)Nc1nc2c(ccc3ccccc32)s1`: the Time was determined as 228 s.

Consider `Fc1ccc(NC(=S)Nc2nc3c(ccc4ccccc43)s2)cc1`, for which the Time was determined as 241 s.

On to `O=[N+]([O-])c1ccc(NC(=S)Nc2nc3c(ccc4ccccc43)s2)cc1`, for which the Time amounted to 208 s.

Turning to `O=C(Nc1ccc(Cl)cc1)Nc1nc2c(ccc3ccccc32)s1`, the Time was 194 s.

On to `O=C(Nc1nc2c(ccc3ccccc32)s1)Nc1cc(C(F)(F)F)ccc1Cl`, for which the Time was found to be 148 s.

With `Cc1ccccc1NC(=O)Nc1nc2c(ccc3ccccc32)s1`, the Time stood at 172 s.

Take `O=C(Nc1ccccc1)Nc1nc2c(ccc3ccccc32)s1`: the Time was determined as 176 s.

Turning to `O=C(Nc1nc2c(ccc3ccccc32)s1)Nc1ccccc1Br`, the Time worked out at 200 s.

Regarding `O=C(Nc1ccc(F)cc1)Nc1nc2c(ccc3ccccc32)s1`, the Time is 226 s.

Consider `O=C(Nc1nc2c(ccc3ccccc32)s1)Nc1ccccc1F`, for which the Time worked out at 272 s.

As to `S=C(Nc1ccccc1)Nc1nc2c(ccc3ccccc32)s1`, the Time is 182 s.

On to `O=C(Nc1ccc(Oc2ccccc2)cc1)Nc1nc2c(ccc3ccccc32)s1`, for which the Time came out at 140 s.

As for `Cc1ccccc1NC(=S)Nc1nc2c(ccc3ccccc32)s1`, the Time was determined as 166 s.

The next assay concerns Mus musculus. Nature of the assay: Neuroprotective activity in haloperidol-induced catalepsy Mus musculus Swiss albino (mouse) model assessed as mean descent time at 100 mg/kg, po administered 30 min before haloperidol challenge measured at 30 min post challenge. The format is functional.
Conditions: not given
Take `S=C(Nc1ccc(Cl)cc1)Nc1nc2c(ccc3ccccc32)s1`: the Time worked out at 92 s.

For the compound `Fc1ccc(NC(=S)Nc2nc3c(ccc4ccccc43)s2)cc1`, the Time was 43 s.

Take `O=[N+]([O-])c1ccc(NC(=S)Nc2nc3c(ccc4ccccc43)s2)cc1`: the Time turned out to be 77 s.

Take `O=C(Nc1ccc(Cl)cc1)Nc1nc2c(ccc3ccccc32)s1`: the Time turned out to be 78 s.

Regarding `O=C(Nc1nc2c(ccc3ccccc32)s1)Nc1cc(C(F)(F)F)ccc1Cl`, the Time worked out at 67 s.

For `Cc1ccccc1NC(=O)Nc1nc2c(ccc3ccccc32)s1`, the Time came out at 71 s.

As to `O=C(Nc1ccccc1)Nc1nc2c(ccc3ccccc32)s1`, the Time turned out to be 72 s.

Regarding `O=C(Nc1nc2c(ccc3ccccc32)s1)Nc1ccccc1Br`, the Time worked out at 77 s.

With `O=C(Nc1ccc(F)cc1)Nc1nc2c(ccc3ccccc32)s1`, the Time stood at 84 s.

Regarding `O=C(Nc1nc2c(ccc3ccccc32)s1)Nc1ccccc1F`, the Time was found to be 57 s.

With `S=C(Nc1ccccc1)Nc1nc2c(ccc3ccccc32)s1`, the Time was 65 s.

On to `O=C(Nc1ccc(Oc2ccccc2)cc1)Nc1nc2c(ccc3ccccc32)s1`, for which the Time came out at 76 s.

`Cc1ccccc1NC(=S)Nc1nc2c(ccc3ccccc32)s1`: the Time amounted to 68 s.

Another assay concerns Mus musculus. The experiment in a line: Neuroprotective activity in Mus musculus Swiss albino (mouse) model assessed as reduction in haloperidol-induced catalepsy at 100 mg/kg, ip administered 30 min before haloperidol challenge measured for 30 to 180 min. The format is functional. Details: scale not given: the % may be the effect or the level left. The note with it: route intraperitoneal.
Consider `S=C(Nc1ccc(Cl)cc1)Nc1nc2c(ccc3ccccc32)s1`, for which the Activity turned out to be 27.88%.

With `Fc1ccc(NC(=S)Nc2nc3c(ccc4ccccc43)s2)cc1`, the Activity stood at 34.95%.

Consider `O=[N+]([O-])c1ccc(NC(=S)Nc2nc3c(ccc4ccccc43)s2)cc1`, for which the Activity turned out to be 32.13%.

For `O=C(Nc1ccc(Cl)cc1)Nc1nc2c(ccc3ccccc32)s1`, the Activity is reported as 38.61%.

In the case of `O=C(Nc1nc2c(ccc3ccccc32)s1)Nc1cc(C(F)(F)F)ccc1Cl`, the Activity was 51.37%.

`Cc1ccccc1NC(=O)Nc1nc2c(ccc3ccccc32)s1`: the Activity came out at 47.64%.

With `O=C(Nc1ccccc1)Nc1nc2c(ccc3ccccc32)s1`, the Activity stood at 44.44%.

On to `O=C(Nc1nc2c(ccc3ccccc32)s1)Nc1ccccc1Br`, for which the Activity came to 38.74%.

Regarding `O=C(Nc1ccc(F)cc1)Nc1nc2c(ccc3ccccc32)s1`, the Activity is on record as 30.3%.

`O=C(Nc1nc2c(ccc3ccccc32)s1)Nc1ccccc1F`: the Activity is 29.12%.

For the compound `S=C(Nc1ccccc1)Nc1nc2c(ccc3ccccc32)s1`, the Activity is 44.63%.

In the case of `O=C(Nc1ccc(Oc2ccccc2)cc1)Nc1nc2c(ccc3ccccc32)s1`, the Activity amounted to 55.56%.

In the case of `Cc1ccccc1NC(=S)Nc1nc2c(ccc3ccccc32)s1`, the Activity came to 49.87%.

The subject of the next assay is Mus musculus. Nature of the assay: Neuroprotective activity in haloperidol-induced catalepsy Mus musculus Swiss albino (mouse) model assessed as mean descent time at 100 mg/kg, po administered 30 min before haloperidol challenge measured at 90 min post challenge.
Conditions: not given
The format is functional.
As for `S=C(Nc1ccc(Cl)cc1)Nc1nc2c(ccc3ccccc32)s1`, the Time came to 198 s.

On to `Fc1ccc(NC(=S)Nc2nc3c(ccc4ccccc43)s2)cc1`, for which the Time is 167 s.

Turning to `O=[N+]([O-])c1ccc(NC(=S)Nc2nc3c(ccc4ccccc43)s2)cc1`, the Time is 199 s.

Turning to `O=C(Nc1ccc(Cl)cc1)Nc1nc2c(ccc3ccccc32)s1`, the Time is 171 s.

In the case of `O=C(Nc1nc2c(ccc3ccccc32)s1)Nc1cc(C(F)(F)F)ccc1Cl`, the Time was determined as 141 s.

In the case of `Cc1ccccc1NC(=O)Nc1nc2c(ccc3ccccc32)s1`, the Time worked out at 138 s.

In the case of `O=C(Nc1ccccc1)Nc1nc2c(ccc3ccccc32)s1`, the Time stood at 156 s.

Turning to `O=C(Nc1nc2c(ccc3ccccc32)s1)Nc1ccccc1Br`, the Time was 145 s.

As to `O=C(Nc1ccc(F)cc1)Nc1nc2c(ccc3ccccc32)s1`, the Time turned out to be 196 s.

Regarding `O=C(Nc1nc2c(ccc3ccccc32)s1)Nc1ccccc1F`, the Time is 188 s.

For `S=C(Nc1ccccc1)Nc1nc2c(ccc3ccccc32)s1`, the Time was 151 s.

In the case of `O=C(Nc1ccc(Oc2ccccc2)cc1)Nc1nc2c(ccc3ccccc32)s1`, the Time is 119 s.

In the case of `Cc1ccccc1NC(=S)Nc1nc2c(ccc3ccccc32)s1`, the Time was determined as 138 s.

In the next assay the test system is Mus musculus. Nature of the assay: Neuroprotective activity in haloperidol-induced catalepsy Mus musculus Swiss albino (mouse) model assessed as mean cumulative descent time at 100 mg/kg, po administered 30 min before haloperidol challenge (reference value: 33 +/- 1.34 min). The format is functional.
Conditions: not given
In the case of `S=C(Nc1ccc(Cl)cc1)Nc1nc2c(ccc3ccccc32)s1`, the Time was found to be 18.9 min.

Consider `Fc1ccc(NC(=S)Nc2nc3c(ccc4ccccc43)s2)cc1`, for which the Time came to 17.1 min.

As to `O=[N+]([O-])c1ccc(NC(=S)Nc2nc3c(ccc4ccccc43)s2)cc1`, the Time was determined as 17.8 min.

Turning to `O=C(Nc1ccc(Cl)cc1)Nc1nc2c(ccc3ccccc32)s1`, the Time was determined as 16.2 min.

`O=C(Nc1nc2c(ccc3ccccc32)s1)Nc1cc(C(F)(F)F)ccc1Cl`: the Time amounted to 12.9 min.

As for `Cc1ccccc1NC(=O)Nc1nc2c(ccc3ccccc32)s1`, the Time amounted to 13.9 min.

Consider `O=C(Nc1ccccc1)Nc1nc2c(ccc3ccccc32)s1`, for which the Time was determined as 14.7 min.

For the compound `O=C(Nc1nc2c(ccc3ccccc32)s1)Nc1ccccc1Br`, the Time was 16.1 min.

Regarding `O=C(Nc1ccc(F)cc1)Nc1nc2c(ccc3ccccc32)s1`, the Time was found to be 18.3 min.

For the compound `O=C(Nc1nc2c(ccc3ccccc32)s1)Nc1ccccc1F`, the Time was 18.6 min.

As to `S=C(Nc1ccccc1)Nc1nc2c(ccc3ccccc32)s1`, the Time was 14.7 min.

As to `O=C(Nc1ccc(Oc2ccccc2)cc1)Nc1nc2c(ccc3ccccc32)s1`, the Time came to 11.9 min.

On to `Cc1ccccc1NC(=S)Nc1nc2c(ccc3ccccc32)s1`, for which the Time turned out to be 13.3 min.
